The source of these data is ChEMBL document CHEMBL1201862, “PubChem BioAssay data set” (2004).

SMILES strings stand for the structures. Calls of active or inactive are those of the source. Some results are limits rather than exact numbers.

As a reminder, the EC50 is the concentration at which the effect is half-maximal. Broadly, the IC50 is the concentration that inhibits the measured activity by half. Broadly, the CC50 is the concentration giving 50% cytotoxicity. Broadly, the AC50 is the concentration giving half of the maximal activity seen.

In assay [1] the target is T1, Mitochondrial peptide methionine sulfoxide reductase (Bos taurus, UniProt P54149).
T1 sequence (P54149 whole entry): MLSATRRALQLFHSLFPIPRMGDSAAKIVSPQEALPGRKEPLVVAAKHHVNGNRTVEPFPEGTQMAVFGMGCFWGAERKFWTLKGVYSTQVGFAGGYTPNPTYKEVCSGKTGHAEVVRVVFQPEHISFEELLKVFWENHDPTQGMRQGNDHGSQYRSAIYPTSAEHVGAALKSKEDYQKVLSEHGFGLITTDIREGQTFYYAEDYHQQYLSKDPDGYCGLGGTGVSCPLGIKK
As to the kind of experiment: Absorbance-based biochemical high throughput dose response assay for activators of Methionine sulfoxide reductase A (MsrA). Type of assay: functional.

Assay [2] has as its target G-protein coupled receptor 35 (Homo sapiens, UniProt Q9HC97). As to the kind of experiment: GPR35 antagonists blocking zaprinast-driven arrestin recruitment, primary screen, imaging, U2OS, beta-arrestin-GFP, zaprinast agonist (AID 2058).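 Further: antagonist potency meaning inhibition of agonist-induced arrestin redistribution.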 The class given is functional.
The nature of a further assay: cells. Type of assay: functional.
The nature of assay [3]: THP-1 cell cytotoxicity, dose response, cytotoxicity control for non-replicating M. tuberculosis project (AID 489025). Type of assay: functional.
A further assay deals with T2, CAAX prenyl protease 2 (Saccharomyces cerevisiae S288c, UniProt Q03530).
T2 sequence (Q03530 whole entry): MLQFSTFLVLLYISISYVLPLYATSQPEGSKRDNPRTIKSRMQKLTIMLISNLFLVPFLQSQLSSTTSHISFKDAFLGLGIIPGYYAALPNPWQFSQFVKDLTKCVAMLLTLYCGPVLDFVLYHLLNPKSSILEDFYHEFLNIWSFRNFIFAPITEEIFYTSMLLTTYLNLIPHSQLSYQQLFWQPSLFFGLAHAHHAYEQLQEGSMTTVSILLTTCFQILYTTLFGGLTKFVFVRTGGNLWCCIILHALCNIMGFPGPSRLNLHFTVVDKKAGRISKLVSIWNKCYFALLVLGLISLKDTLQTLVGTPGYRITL
The class given is biochemical.

Assay [4] is described as follows: Luminescence Cell-Based Dose Retest to Confirm Inhibitors of Cancer Stem Cells. [Related pubchem assays (depositor defined):AID2717, AID2721]. The class given is functional. The conditions noted are these: Homo sapiens.
The target of assay [5] is T3, Neuropeptide Y receptor type 1 (Homo sapiens, UniProt P25929).
T3 sequence (P25929 whole entry): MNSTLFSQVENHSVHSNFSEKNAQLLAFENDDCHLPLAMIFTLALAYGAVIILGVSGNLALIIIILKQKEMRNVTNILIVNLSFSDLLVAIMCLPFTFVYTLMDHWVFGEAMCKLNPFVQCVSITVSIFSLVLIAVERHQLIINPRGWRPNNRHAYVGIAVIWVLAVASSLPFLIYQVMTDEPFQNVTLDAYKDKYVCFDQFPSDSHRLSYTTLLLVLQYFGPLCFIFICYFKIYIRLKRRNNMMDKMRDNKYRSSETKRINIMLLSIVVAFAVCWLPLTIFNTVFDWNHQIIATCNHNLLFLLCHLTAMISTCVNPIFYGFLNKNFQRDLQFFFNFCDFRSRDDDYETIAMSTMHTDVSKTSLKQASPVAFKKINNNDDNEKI
Description: NPY-Y1 receptor antagonist potency, dose response, cell-based (AID 1277). Type of assay: functional.

For the next assay, the target named is Trypsin (Sus scrofa, UniProt P00761). Description: porcine trypsin inhibitors, dose response, selectivity assay for Rce1 protease inhibitor project, biochemical, quenched peptide fluorescence, cherry-pick (AID 488789).
The target of assay [6] is T4, Neuropeptide Y receptor type 2 (Homo sapiens, UniProt P49146).
T4 sequence (P49146 whole entry): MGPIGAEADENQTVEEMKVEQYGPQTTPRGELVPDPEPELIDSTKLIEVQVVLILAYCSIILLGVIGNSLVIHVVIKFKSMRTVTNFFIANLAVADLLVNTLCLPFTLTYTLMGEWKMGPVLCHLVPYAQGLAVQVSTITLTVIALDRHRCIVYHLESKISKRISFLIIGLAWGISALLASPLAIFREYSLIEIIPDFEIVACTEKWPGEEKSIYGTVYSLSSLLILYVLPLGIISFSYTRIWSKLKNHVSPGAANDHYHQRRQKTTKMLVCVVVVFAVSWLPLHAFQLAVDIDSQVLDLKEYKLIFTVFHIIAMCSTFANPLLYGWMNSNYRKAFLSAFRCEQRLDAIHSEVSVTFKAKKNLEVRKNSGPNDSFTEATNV
As to the kind of experiment: NPY-Y2 antagonist potency, selectivity check, dose response, counter-screen for NPY-Y1 antagonist project, cell-based (AID 1278). The class given is functional. A general note: The purpose of a counterscreen is to sort out artefacts and off-target activity.

In assay [7] the target is Peroxisome proliferator-activated receptor gamma/Nuclear receptor coactivator 3 (Homo sapiens, UniProt P37231). Type of assay: functional.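 Further: agonist potency for raising coactivator recruitment to the receptor.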
In assay [8] the target is Peroxisome proliferator-activated receptor gamma/Nuclear receptor coactivator 2 (Homo sapiens, UniProt P37231). Type of assay: functional.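 Further: agonist potency for raising coactivator recruitment to the receptor.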
The target of assay [9] is Peroxisome proliferator-activated receptor gamma/Nuclear receptor coactivator 1 (Homo sapiens, UniProt P37231). The class given is functional.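 Further: agonist potency as compounds enhance coactivator SRC-1 recruitment to PPARgamma.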
Assay [10] concerns the target T5, Eukaryotic translation initiation factor 2-alpha kinase 3 (Homo sapiens, UniProt Q9NZJ5).
T5 sequence (Q9NZJ5 whole entry): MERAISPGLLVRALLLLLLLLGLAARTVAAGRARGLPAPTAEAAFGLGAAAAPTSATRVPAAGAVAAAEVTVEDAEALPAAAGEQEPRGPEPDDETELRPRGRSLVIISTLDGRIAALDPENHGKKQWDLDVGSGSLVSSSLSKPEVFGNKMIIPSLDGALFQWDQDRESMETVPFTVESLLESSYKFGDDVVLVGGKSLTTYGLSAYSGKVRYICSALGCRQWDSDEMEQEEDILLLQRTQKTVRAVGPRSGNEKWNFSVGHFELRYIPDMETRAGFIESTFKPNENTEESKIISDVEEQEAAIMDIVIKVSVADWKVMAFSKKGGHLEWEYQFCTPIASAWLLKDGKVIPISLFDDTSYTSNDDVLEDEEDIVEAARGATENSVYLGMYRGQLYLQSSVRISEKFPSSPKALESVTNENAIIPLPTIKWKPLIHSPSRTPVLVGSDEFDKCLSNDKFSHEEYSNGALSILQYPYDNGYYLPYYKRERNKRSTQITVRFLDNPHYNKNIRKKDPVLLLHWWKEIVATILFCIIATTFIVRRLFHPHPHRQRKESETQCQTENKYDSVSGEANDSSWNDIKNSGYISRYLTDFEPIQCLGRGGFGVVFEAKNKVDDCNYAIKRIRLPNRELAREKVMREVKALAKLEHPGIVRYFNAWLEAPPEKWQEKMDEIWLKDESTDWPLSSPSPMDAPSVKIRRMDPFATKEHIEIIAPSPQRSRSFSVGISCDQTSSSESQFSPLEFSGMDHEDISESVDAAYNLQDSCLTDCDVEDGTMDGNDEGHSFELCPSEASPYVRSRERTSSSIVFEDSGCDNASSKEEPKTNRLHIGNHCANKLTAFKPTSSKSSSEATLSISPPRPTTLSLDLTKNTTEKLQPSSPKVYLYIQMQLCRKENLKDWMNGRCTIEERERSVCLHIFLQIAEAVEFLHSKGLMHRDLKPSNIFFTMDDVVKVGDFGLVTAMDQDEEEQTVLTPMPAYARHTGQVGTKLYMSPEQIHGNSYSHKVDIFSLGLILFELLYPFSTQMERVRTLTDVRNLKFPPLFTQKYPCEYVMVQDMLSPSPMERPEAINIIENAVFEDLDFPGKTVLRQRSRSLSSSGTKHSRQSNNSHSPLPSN
As to the kind of experiment: Counterscreen assay for PERK inhibitors: Dose response cell-based high throughput screening assay to measure inhibition of PERK at 6 hours. [Related pubchem assays: 1522, 1416 ]. Type of assay: functional.

For assay [11], the target named is T5, Eukaryotic translation initiation factor 2-alpha kinase 3. As to the kind of experiment: Dose response cell-based high-throughput screening assay to measure PERK inhibition. [Related pubchem assays: 1416 ]. The class given is functional.
In assay [12] the target is T6, Voltage-gated N-type calcium channel alpha-1B subunit/Amyloid beta A4 precursor protein-binding family A member 1 (Homo sapiens, UniProt Q00975+Q02410). The class given is protein assay.
T6 sequence (Q00975 whole entry): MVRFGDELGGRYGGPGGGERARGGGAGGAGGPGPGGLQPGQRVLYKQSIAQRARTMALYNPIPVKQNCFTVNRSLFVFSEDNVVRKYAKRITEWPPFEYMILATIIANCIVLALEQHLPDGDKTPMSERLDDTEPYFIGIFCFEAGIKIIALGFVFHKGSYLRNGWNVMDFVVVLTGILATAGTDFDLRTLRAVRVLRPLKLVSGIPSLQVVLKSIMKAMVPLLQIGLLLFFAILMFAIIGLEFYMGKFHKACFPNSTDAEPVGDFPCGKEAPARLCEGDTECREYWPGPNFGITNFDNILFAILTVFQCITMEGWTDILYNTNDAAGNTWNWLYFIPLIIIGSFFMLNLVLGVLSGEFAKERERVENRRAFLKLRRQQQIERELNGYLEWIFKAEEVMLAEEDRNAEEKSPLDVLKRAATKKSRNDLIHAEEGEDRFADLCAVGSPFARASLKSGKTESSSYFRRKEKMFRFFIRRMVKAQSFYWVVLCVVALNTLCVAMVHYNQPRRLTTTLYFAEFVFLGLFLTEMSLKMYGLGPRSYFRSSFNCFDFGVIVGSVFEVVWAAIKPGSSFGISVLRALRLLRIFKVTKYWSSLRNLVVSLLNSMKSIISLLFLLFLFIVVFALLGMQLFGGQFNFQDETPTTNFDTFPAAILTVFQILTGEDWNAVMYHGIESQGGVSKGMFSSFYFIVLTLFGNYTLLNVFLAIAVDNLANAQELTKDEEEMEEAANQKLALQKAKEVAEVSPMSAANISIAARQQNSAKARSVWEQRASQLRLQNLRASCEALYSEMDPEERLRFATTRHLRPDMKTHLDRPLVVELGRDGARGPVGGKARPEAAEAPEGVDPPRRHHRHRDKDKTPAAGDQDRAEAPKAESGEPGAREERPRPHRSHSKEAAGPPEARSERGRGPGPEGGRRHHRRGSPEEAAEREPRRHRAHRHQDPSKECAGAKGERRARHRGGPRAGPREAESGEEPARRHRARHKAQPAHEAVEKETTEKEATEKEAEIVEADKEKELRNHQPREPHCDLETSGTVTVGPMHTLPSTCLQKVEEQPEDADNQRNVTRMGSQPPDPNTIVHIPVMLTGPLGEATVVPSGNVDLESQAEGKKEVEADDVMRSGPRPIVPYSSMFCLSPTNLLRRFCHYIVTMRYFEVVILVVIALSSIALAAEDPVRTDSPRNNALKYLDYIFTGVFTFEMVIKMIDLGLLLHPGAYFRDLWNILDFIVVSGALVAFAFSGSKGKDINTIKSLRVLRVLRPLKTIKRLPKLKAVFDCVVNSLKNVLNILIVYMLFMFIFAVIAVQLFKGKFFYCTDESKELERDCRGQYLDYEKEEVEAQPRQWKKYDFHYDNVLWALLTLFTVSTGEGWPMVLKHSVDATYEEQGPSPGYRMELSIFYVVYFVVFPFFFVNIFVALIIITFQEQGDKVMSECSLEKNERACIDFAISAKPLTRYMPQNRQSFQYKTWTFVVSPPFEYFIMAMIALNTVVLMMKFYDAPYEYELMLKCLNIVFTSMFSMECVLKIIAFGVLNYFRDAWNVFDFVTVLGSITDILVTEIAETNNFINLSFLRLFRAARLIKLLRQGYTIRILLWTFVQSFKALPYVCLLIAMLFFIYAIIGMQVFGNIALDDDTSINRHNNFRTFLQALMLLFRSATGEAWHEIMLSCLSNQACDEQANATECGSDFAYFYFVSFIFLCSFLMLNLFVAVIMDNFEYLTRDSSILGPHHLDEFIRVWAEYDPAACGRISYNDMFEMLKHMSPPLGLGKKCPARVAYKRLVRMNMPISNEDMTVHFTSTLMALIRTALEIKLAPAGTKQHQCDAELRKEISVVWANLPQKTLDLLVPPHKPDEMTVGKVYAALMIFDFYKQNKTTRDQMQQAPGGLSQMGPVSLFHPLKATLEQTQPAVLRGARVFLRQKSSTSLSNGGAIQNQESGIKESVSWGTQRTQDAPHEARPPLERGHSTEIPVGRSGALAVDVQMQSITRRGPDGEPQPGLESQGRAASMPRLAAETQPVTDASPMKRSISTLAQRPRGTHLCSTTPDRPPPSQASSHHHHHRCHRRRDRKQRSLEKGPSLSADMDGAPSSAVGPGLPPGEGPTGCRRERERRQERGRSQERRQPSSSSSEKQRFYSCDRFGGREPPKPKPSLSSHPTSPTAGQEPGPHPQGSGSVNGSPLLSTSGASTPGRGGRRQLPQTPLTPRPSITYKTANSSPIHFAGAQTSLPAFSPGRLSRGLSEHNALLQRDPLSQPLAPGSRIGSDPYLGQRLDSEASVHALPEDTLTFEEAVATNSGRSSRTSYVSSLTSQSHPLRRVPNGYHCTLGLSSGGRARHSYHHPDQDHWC
T6 sequence (Q02410 whole entry): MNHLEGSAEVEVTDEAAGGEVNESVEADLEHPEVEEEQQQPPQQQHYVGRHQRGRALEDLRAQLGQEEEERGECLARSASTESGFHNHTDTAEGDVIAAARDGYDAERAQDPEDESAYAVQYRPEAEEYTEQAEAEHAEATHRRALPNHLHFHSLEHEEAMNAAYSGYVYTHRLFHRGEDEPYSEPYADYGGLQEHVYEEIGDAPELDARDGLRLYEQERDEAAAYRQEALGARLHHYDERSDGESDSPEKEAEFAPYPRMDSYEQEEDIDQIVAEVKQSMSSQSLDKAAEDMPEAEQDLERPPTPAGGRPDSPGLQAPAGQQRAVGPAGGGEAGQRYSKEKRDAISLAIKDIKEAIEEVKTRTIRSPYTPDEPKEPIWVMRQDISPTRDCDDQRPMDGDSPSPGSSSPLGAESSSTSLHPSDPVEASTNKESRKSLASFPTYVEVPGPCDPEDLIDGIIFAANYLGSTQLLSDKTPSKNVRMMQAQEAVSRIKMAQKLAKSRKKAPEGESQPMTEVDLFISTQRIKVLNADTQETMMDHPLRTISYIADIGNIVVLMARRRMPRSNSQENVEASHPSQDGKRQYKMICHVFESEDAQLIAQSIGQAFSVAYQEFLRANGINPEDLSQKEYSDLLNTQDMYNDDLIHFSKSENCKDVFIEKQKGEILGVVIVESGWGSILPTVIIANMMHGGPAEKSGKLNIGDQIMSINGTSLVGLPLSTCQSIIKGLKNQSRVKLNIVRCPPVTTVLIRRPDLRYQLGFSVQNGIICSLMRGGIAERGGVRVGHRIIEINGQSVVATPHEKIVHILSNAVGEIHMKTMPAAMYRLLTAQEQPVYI
Assay [13] deals with T6, Voltage-gated N-type calcium channel alpha-1B subunit/Amyloid beta A4 precursor protein-binding family A member 1. Type of assay: protein assay. The source holds these as a separate data set.
The next assay addresses Aspartyl aminopeptidase (Plasmodium falciparum 3D7, UniProt Q8I2J3).
Another assay concerns the target Procathepsin L (Homo sapiens, UniProt P07711).
The nature of assay [14]: cytotoxicity in HEK-293T cells, dose response, cytotoxicity control for BCR NF-kB inhibitor project, luminescence, B-cell screen hits (AID 489021).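 Further: HEK-293T cells carrying an NF-kB luciferase reporter; cells exposed to compound for about 14 hours before viability readout.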 The class given is functional, cell-based.
In assay [15] the target is Glyceraldehyde-3-phosphate dehydrogenase (Homo sapiens, UniProt P04406).
Sequence of Glyceraldehyde-3-phosphate dehydrogenase (P04406 whole entry): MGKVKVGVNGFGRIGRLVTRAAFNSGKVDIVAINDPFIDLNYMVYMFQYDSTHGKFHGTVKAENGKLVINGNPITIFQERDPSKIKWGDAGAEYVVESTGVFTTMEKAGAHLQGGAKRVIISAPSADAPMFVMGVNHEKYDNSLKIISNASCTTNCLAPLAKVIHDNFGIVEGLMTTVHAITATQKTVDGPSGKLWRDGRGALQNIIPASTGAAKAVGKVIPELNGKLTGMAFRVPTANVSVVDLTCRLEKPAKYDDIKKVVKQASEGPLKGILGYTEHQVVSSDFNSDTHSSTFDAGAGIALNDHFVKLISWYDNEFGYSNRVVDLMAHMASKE
The target of assay [16] is Melanin-concentrating hormone receptor 1 (Homo sapiens, UniProt Q99705). Description: Late-stage fluorescence-based counterscreen for antagonists of the G-protein coupled receptor 7 (GPR7): cell-based dose response assay to identify antagonists of the melanin-concentrating hormone receptor 1 (MCHR1). [Related pubchem assays (depositor defined):AID1861, AID1880, AID1952, AID2148, AID2251, AID2257, AID485339]. Type of assay: functional.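 Further: stimulated with 30 nM MCH peptide agonist.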
Sequence of Melanin-concentrating hormone receptor 1 (Q99705 whole entry): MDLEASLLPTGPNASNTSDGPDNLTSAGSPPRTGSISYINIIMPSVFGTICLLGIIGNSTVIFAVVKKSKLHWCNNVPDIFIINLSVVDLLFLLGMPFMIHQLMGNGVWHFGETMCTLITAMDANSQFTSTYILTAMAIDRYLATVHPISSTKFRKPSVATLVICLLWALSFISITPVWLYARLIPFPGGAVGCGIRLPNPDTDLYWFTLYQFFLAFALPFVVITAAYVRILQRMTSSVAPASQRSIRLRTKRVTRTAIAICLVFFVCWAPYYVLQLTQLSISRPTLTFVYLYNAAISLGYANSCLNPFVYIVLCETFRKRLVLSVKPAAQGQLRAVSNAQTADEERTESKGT

Assay [17] deals with T7, Neuropeptides B/W receptor type 1 (Homo sapiens, UniProt P48145).
T7 sequence (P48145 whole entry): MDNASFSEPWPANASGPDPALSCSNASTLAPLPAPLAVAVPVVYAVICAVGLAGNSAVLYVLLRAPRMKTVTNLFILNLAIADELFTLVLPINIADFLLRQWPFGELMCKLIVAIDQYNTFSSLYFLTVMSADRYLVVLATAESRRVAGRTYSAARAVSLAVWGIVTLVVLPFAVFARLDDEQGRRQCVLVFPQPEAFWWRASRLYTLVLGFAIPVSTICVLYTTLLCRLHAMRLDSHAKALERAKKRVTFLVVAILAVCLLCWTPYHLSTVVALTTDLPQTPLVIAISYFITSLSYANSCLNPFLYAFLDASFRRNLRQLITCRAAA
Description: GPR7 antagonist potency, late-stage follow-up, cell-based, fluorescence, dose response (AID 463251). Type of assay: functional.

Sequence of Procathepsin L (P07711 whole entry): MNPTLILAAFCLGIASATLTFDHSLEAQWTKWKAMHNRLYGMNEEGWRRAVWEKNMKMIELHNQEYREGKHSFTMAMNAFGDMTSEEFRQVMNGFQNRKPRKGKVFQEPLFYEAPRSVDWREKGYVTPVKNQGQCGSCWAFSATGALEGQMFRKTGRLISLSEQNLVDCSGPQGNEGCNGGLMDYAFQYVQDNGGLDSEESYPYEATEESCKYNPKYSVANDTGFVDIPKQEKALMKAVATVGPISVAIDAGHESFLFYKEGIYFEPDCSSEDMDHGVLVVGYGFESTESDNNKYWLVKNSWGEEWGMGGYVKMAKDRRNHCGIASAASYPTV
Sequence of Aspartyl aminopeptidase (Q8I2J3 whole entry): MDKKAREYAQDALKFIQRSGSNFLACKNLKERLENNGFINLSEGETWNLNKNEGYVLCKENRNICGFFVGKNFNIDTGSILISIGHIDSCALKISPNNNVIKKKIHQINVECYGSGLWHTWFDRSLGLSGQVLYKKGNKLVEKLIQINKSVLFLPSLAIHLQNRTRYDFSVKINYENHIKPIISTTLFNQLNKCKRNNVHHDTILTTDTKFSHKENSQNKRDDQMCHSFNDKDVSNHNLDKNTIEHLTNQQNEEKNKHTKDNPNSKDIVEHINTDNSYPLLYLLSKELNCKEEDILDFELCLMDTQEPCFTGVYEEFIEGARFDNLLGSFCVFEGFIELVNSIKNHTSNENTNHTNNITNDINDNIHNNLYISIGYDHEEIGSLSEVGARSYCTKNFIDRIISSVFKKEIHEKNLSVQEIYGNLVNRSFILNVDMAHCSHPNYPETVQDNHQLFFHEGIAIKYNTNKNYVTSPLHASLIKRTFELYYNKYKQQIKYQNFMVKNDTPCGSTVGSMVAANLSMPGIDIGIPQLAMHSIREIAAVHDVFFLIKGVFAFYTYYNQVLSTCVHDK
Sequence of G-protein coupled receptor 35 (Q9HC97 whole entry): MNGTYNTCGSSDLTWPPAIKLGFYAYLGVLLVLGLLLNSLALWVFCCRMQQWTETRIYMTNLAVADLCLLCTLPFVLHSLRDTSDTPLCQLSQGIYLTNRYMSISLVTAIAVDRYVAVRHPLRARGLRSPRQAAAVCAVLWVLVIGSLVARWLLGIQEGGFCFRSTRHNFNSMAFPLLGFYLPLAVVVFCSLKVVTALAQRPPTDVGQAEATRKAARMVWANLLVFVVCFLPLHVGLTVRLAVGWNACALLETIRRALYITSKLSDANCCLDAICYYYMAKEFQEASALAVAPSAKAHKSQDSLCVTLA

Turning to `CCN(CC)c1ccc(-c2sc(Nc3ccccc3)n[n+]2-c2ccc(F)cc2)cc1`, in [1], the EC50 is > 104 µM (inactive). Moreover, the IC50 in [2] is 0.626 µM (active); in “cells”, 14 µM (active). In addition, in [3], the cytotoxic concentration (CC50) was 26.4 µM (active).
Take `Cc1nc(N2CCCCC2)c2c(C)c(C(=O)Nc3ccccc3C(F)(F)F)sc2n1`: the half-maximal activity concentration (AC50) at CAAX prenyl protease 2 was 13.4 µM (active); in assay [4] it was 2.18 µM (active); on Trypsin it was > 100 µM (inactive). For the same molecule, the IC50 in assay [5] is 7.1 µM (active); in [6] it was 6.66 µM (active).
On to `O=c1cc(Cn2ccnc2)c2cc3c(cc2o1)CCC3`, for which the concentration giving a half-maximal response (EC50) in assay [7], in assay [8] and in [9] was > 79.4 µM (not active) throughout.
Regarding `CC(C)(C)c1ccc(C(=O)Oc2ccccc2CCC(=O)O)cc1`, the EC50 in [10] and in [11] was > 55.7 µM (not active) each time.
With `Nc1ccc2[nH]c(-c3ccc(N)c(Cl)c3)nc2c1`, the half-maximal inhibitory concentration (IC50) in [12] was 35.6 µM (active); in [13], 4.1 µM (active).
Turning to `c1ccc(NCn2cncn2)nc1`, the 50% inhibitory concentration (IC50) at Aspartyl aminopeptidase was 2.56 µM (active); at Procathepsin L, > 59.6 µM (not active).
Regarding `COc1ccc(-c2ccoc2)cc1[C@H]1[C@H]2C=CC[C@@H](C)[C@@H]2C(=O)N1Cc1ccccc1`, in assay [14], the IC50 was > 80 µM (inactive).
As to `COc1cccc(N2C(=O)C(Cl)=C(N(C)C)C2=O)c1`, the IC50 in assay [15] was > 50 µM (inconclusive).
Consider `O=C(CCSCc1ccccc1Cl)NCc1cccs1`, for which the EC50 in [7], in assay [8] and in assay [9] was > 79.4 µM (not active) throughout.
For `CCOC(=O)C1=C(CS(=O)(=O)c2ccc(F)cc2)NC(=O)NC1c1ccc(O)c(O)c1` (centres undefined), the results for the concentration for half-maximal inhibition (IC50) at Aspartyl aminopeptidase and against Procathepsin L were 1.52 µM (active) and > 59.6 µM (not active), respectively.
Consider `CCCCC(O)(CCCC)C(=O)NN(C(=O)OC)c1ccccc1`, for which the 50% inhibitory concentration (IC50) in assay [5] and in assay [6] was > 35 µM (not active) each time.
Take `COc1ccccc1/C=C1\SC(=S)N(CCC(=O)NC2=NCCS2)C1=O`: the IC50 in assay [14] is > 80 µM (inactive).
`COc1ccc(Oc2c(-c3ccccc3)cnn(-c3ccc(C)cc3)c2=O)cc1`: the IC50 in assay [16] was 20 µM (inactive); in assay [17] it was > 20 µM (inactive).
The matching figures for `COc1ccc(Oc2c(N3CCCCC3)cnn(-c3ccc(C(C)C)cc3)c2=O)cc1`: 5.7 µM (active) and > 20 µM (inactive).
For `C/N=C1\SC(CC(=O)Nc2ccccc2F)C(=O)N1C` (centres undefined), the EC50 in assay [10] and in [11] was > 55.7 µM (not active) throughout.
